Experimental data taken from patent US10294202B2, “Pyrrolidinones as herbicides” (FMC Corporation, priority 2013, dated 2019).

Tests used:
blackgrass = assay: Test A postemergence herbicide test; format: in vivo, Alopecurus myosuroides
In short: (§1)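 Visual injury rating, 0 (no effect) to 100 (complete control), versus untreated controls ~10 days after treatment. Postemergence spray applied at one- to two-leaf stage, plants 2–10 cm tall, potted in loam soil/sand. Greenhouse-held.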

wheat = assay: Test A pre-/postemergence herbicide test; format: in vivo, Triticum aestivum
In short: (§2)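 Both application timings used compounds in a non-phytotoxic solvent plus surfactant. Pre-emergence: soil sprayed directly after seeding into loam/sand. Post-emergence: foliage of 2–10 cm seedlings (1–2 leaves) sprayed. Injury rated ~10 days later, 0–100.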

rice = assay: Test B flooded paddy test; format: in vivo, Oryza sativa; settings: Flood, scale of 0 to 100 where 0 is no effect and 100 is complete control
In short: (§3)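 Treatment was made at the 2-leaf stage by dosing the standing floodwater, kept 3 cm above soil level for the whole test. Greenhouse exposure lasted 13 to 15 days. Response is a visual percent rating relative to controls, where a dash indicates no test result.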

pigweed = assay: Test A pre-/postemergence herbicide test; format: in vivo, Amaranthus retroflexus; settings: for Pigweed plant response rating: Preemergence, visual rating on 0 to 100 scale (0 no effect, 100 complete control)
In short: as §2

barnyardgrass [1] = assay: Test B flooded paddy test; format: in vivo, Echinochloa crus-galli; settings: Flood, scale of 0 to 100 where 0 is no effect and 100 is complete control
In short: as §3

ragweed = assay: Test A pre-/postemergence herbicide test; format: in vivo, Ambrosia elatior
In short: as §2

giant foxtail = assay: Test A pre-/postemergence herbicide test; format: in vivo, Setaria faberii; settings: for Foxtail, Giant plant response rating: Preemergence, visual rating on 0 to 100 scale (0 no effect, 100 complete control)
In short: as §2

galium = assay: Test A postemergence herbicide test; format: in vivo, Galium aparine
In short: as §1

corn = assay: Test A pre-/postemergence herbicide test; format: in vivo, Zea mays
In short: as §2

ryegrass, Italian = assay: Test A pre-/postemergence herbicide test; format: in vivo, Lolium multiflorum
In short: as §2

ducksalad = assay: Test B flooded paddy test; format: in vivo, Heteranthera limosa; settings: Flood, scale of 0 to 100 where 0 is no effect and 100 is complete control
In short: as §3

kochia = assay: Test A pre-/postemergence herbicide test; format: in vivo, Kochia scoparia
In short: as §2

barnyardgrass [2] = assay: Test A pre-/postemergence herbicide test; format: in vivo, Echinochloa crus-galli; settings: for Barnyardgrass plant response rating: Preemergence, visual rating on 0 to 100 scale (0 no effect, 100 complete control)
In short: as §2

sedge, umbrella = assay: Test B flooded paddy test; format: in vivo, Cyperus difformis; settings: Flood, scale of 0 to 100 where 0 is no effect and 100 is complete control
In short: as §3

morningglory = assay: Test A pre-/postemergence herbicide test; format: in vivo, Ipomoea spp.
In short: as §2

crabgrass, large = assay: Test A pre-/postemergence herbicide test; format: in vivo, Digitaria sanguinalis
In short: as §2

velvetleaf = assay: Test A pre-/postemergence herbicide test; format: in vivo, Abutilon theophrasti
In short: as §2

[3] = 125 g ai/ha, 0 to 100 scale, 0 no effect, 100 complete control
[4] = 500 g ai/ha, 0 to 100 scale (0 no effect, 100 complete control)
[5] = Postemergence, 125 g ai/ha, 0 to 100 scale, 0 no effect, 100 complete control
[6] = Postemergence, 500 g ai/ha, 0 to 100 scale (0 no effect, 100 complete control)
[7] = preemergence, 500 g ai/ha, 0 to 100 scale
[8] = Preemergence, 125 g ai/ha, visual rating on 0 to 100 scale (0 no effect, 100 complete control)
[9] = preemergence, 500 g ai/ha, 0 to 100 scale (0 no effect, 100 complete control)
[10] = 125 g ai/ha, visual rating, 0 to 100 scale, 0 no effect, 100 complete control, approximately 10 days, preemergence

`O=C1NCC(c2cccc(C(F)(F)F)c2)C1C(=O)Nc1ccccn1` (racemic) [Compound 110] was tested, and the “Plant response rating, Blackgrass” value (blackgrass; [3]) was 0, the “Plant response rating, Blackgrass” value (blackgrass; [4]) was 70 and the “Plant response rating, Wheat” value (wheat; [5]) was 0. The “Plant response rating, Wheat” value (wheat; [6]) was 20, the “Plant response rating, Rice” value (rice; 1000 g ai/ha) was 0 and the “Plant response rating, Pigweed” value (pigweed; [5]) was 0. For the same molecule, the “Plant response rating, Pigweed” value (pigweed; [6]) was 0, the “Pigweed plant response rating” value (pigweed; 125 g ai/ha) was 0 and the “Plant response rating, Pigweed” value (pigweed; [7]) was 0. For the same molecule, the “Plant response rating, Barnyardgrass” value (barnyardgrass [1]; 1000 g ai/ha) was 0, the “Plant response rating, Ragweed” value (ragweed; [5]) was 0 and the “Plant response rating, Ragweed” value (ragweed; [6]) was 0. For the same molecule, the “Ragweed plant response rating” value (ragweed; [8]) was 0, the “Plant response rating, Ragweed” value (ragweed; [7]) was 0 and the “Plant response rating, Foxtail, Giant” value (giant foxtail; [5]) was 80. The “Plant response rating, Foxtail, Giant” value (giant foxtail; [6]) was 90, the “Foxtail, Giant plant response rating” value (giant foxtail; 125 g ai/ha) was 60 and the “Plant response rating, Foxtail, Giant” value (giant foxtail; [7]) was 90. For the same molecule, the “Plant response rating, Galium” value (galium; [3]) was 20, the “Plant response rating, Galium” value (galium; [4]) was 40 and the “Plant response rating, Corn” value (corn; [5]) was 0. The “Plant response rating, Corn” value (corn; [6]) was 20, the “Plant response rating, Ryegrass, Italian” value (ryegrass, Italian; [5]) was 20 and the “Plant response rating, Ryegrass, Italian” value (ryegrass, Italian; [6]) was 40. The “Ryegrass, Italian plant response rating” value (ryegrass, Italian; [8]) was 0, the “Plant response rating, Ryegrass, Italian” value (ryegrass, Italian; [7]) was 0 and the “Plant response rating, Ducksalad” value (ducksalad; 1000 g ai/ha) was 95. The “Plant response rating, Kochia” value (kochia; [5]) was 0, the “Plant response rating, Kochia” value (kochia; [6]) was 0 and the “Kochia plant response rating” value (kochia; [8]) was 0. For the same molecule, the “Plant response rating, Kochia” value (kochia; [7]) was 0, the “Plant response rating, Barnyardgrass” value (barnyardgrass [2]; [5]) was 50 and the “Plant response rating, Barnyardgrass” value (barnyardgrass [2]; [6]) was 90. For the same molecule, the “Barnyardgrass plant response rating” value (barnyardgrass [2]; 125 g ai/ha) was 70, the “Plant response rating, Barnyardgrass” value (barnyardgrass [2]; [9]) was 90 and the “Plant response rating, Sedge, Umbrella” value (sedge, umbrella; 1000 g ai/ha) was 50.

In the case of `O=C1NCC(c2ccc(F)cc2)C1C(=O)Nc1ccccc1OC(F)F` (racemic) [Compound 118], the “Plant response rating, Blackgrass” value (blackgrass; [3]) is reported as 0, the “Plant response rating, Blackgrass” value (blackgrass; [4]) is reported as 0 and the “Plant response rating, Wheat” value (wheat; [5]) is reported as 0. For the same molecule, the “Wheat plant response rating (0 to 100 scale, 0 is no effect, 100 is complete control)” value (wheat; Postemergence, 500 g ai/ha) was 0, the “Plant response rating, Rice” value (rice; 500 g ai/ha) was 0 and the “Plant response rating, Pigweed” value (pigweed; [10]) was 0. For the same molecule, the “Plant response rating, Pigweed” value (pigweed; [5]) was 0, the “Pigweed plant response rating (0 to 100 scale, 0 is no effect, 100 is complete control)” value (pigweed; Postemergence, 500 g ai/ha) was 0 and the “Plant response rating, Pigweed” value (pigweed; [7]) was 0. For the same molecule, the “Plant response rating, Barnyardgrass” value (barnyardgrass [1]; 500 g ai/ha) was 20, the “Plant response rating, Ragweed” value (ragweed; [10]) was 0 and the “Plant response rating, Ragweed” value (ragweed; [5]) was 0. The “Ragweed plant response rating (0 to 100 scale, 0 is no effect, 100 is complete control)” value (ragweed; Postemergence, 500 g ai/ha) was 0, the “Plant response rating, Ragweed” value (ragweed; [7]) was 0 and the “Plant response rating, Foxtail, Giant” value (giant foxtail; [10]) was 90. The “Plant response rating, Foxtail, Giant” value (giant foxtail; [5]) was 50, the “Foxtail, Giant plant response rating (0 to 100 scale, 0 is no effect, 100 is complete control)” value (giant foxtail; Postemergence, 500 g ai/ha) was 80 and the “Plant response rating, Foxtail, Giant” value (giant foxtail; [7]) was 90. For the same molecule, the “Plant response rating, Galium” value (galium; [3]) was 50, the “Galium plant response rating (0 to 100 scale, 0 is no effect, 100 is complete control)” value (galium; 500 g ai/ha) was 60 and the “Plant response rating, Corn” value (corn; [5]) was 0. For the same molecule, the “Plant response rating, Corn” value (corn; [6]) was 0, the “Plant response rating, Ryegrass, Italian” value (ryegrass, Italian; [10]) was 0 and the “Plant response rating, Ryegrass, Italian” value (ryegrass, Italian; [5]) was 0. The “Ryegrass, Italian plant response rating (0 to 100 scale, 0 is no effect, 100 is complete control)” value (ryegrass, Italian; Postemergence, 500 g ai/ha) was 0, the “Plant response rating, Ryegrass, Italian” value (ryegrass, Italian; [7]) was 0 and the “Plant response rating, Ducksalad” value (ducksalad; 500 g ai/ha) was 100. For the same molecule, the “Plant response rating, Kochia” value (kochia; [10]) was 0, the “Plant response rating, Kochia” value (kochia; [5]) was 10 and the “Kochia plant response rating (0 to 100 scale, 0 is no effect, 100 is complete control)” value (kochia; Postemergence, 500 g ai/ha) was 50. The “Plant response rating, Kochia” value (kochia; [7]) was 0, the “Plant response rating, Barnyardgrass” value (barnyardgrass [2]; [10]) was 50 and the “Plant response rating, Barnyardgrass” value (barnyardgrass [2]; [5]) was 0. The “Plant response rating, Barnyardgrass” value (barnyardgrass [2]; [6]) was 60, the “Plant response rating, Barnyardgrass” value (barnyardgrass [2]; [9]) was 70 and the “Plant response rating, Sedge, Umbrella” value (sedge, umbrella; 500 g ai/ha) was 0.

For `O=C1NCC(c2ccc3c(c2)OC(F)(F)O3)C1C(=O)Nc1ccccc1F` (stereo not drawn) [Compound 63], the “Plant response rating, Wheat” value (wheat; [5]) was 0, the “Plant response rating, Wheat” value (wheat; [6]) was 30 and the “Wheat plant response rating” value (wheat; [8]) was 0. For the same molecule, the “Plant response rating, Wheat” value (wheat; [7]) was 0, the “Plant response rating, Rice” value (rice; 250 g ai/ha) was 0 and the “Plant response rating, Pigweed” value (pigweed; [5]) was 0. The “Plant response rating, Pigweed” value (pigweed; [6]) was 0, the “Pigweed plant response rating” value (pigweed; 125 g ai/ha) was 0 and the “Plant response rating, Pigweed” value (pigweed; [7]) was 0. For the same molecule, the “Plant response rating, Barnyardgrass” value (barnyardgrass [1]; 250 g ai/ha) was 20, the “Plant response rating, Morningglory” value (morningglory; [5]) was 0 and the “Plant response rating, Morningglory” value (morningglory; [6]) was 0. The “Morningglory plant response rating” value (morningglory; [8]) was 0, the “Plant response rating, Morningglory” value (morningglory; [7]) was 0 and the “Plant response rating, Foxtail, Giant” value (giant foxtail; [5]) was 70. The “Plant response rating, Foxtail, Giant” value (giant foxtail; [6]) was 90, the “Foxtail, Giant plant response rating” value (giant foxtail; 125 g ai/ha) was 70 and the “Plant response rating, Foxtail, Giant” value (giant foxtail; [7]) was 90. For the same molecule, the “Plant response rating, Crabgrass, Large” value (crabgrass, large; [5]) was 80, the “Plant response rating, Crabgrass, Large” value (crabgrass, large; [6]) was 90 and the “Crabgrass, Large plant response rating” value (crabgrass, large; [8]) was 90. For the same molecule, the “Plant response rating, Crabgrass, Large” value (crabgrass, large; [7]) was 90, the “Plant response rating, Corn” value (corn; [5]) was 0 and the “Plant response rating, Corn” value (corn; [6]) was 50. For the same molecule, the “Corn plant response rating” value (corn; [8]) was 0, the “Plant response rating, Corn” value (corn; [7]) was 0 and the “Plant response rating, Velvetleaf” value (velvetleaf; [5]) was 0. The “Plant response rating, Velvetleaf” value (velvetleaf; [6]) was 0, the “Velvetleaf plant response rating” value (velvetleaf; [8]) was 0 and the “Plant response rating, Velvetleaf” value (velvetleaf; [7]) was 0. The “Plant response rating, Ducksalad” value (ducksalad; 250 g ai/ha) was 60, the “Plant response rating, Barnyardgrass” value (barnyardgrass [2]; [5]) was 60 and the “Plant response rating, Barnyardgrass” value (barnyardgrass [2]; [6]) was 80. The “Barnyardgrass plant response rating” value (barnyardgrass [2]; 125 g ai/ha) was 50, the “Plant response rating, Barnyardgrass” value (barnyardgrass [2]; [9]) was 80 and the “Plant response rating, Sedge, Umbrella” value (sedge, umbrella; 250 g ai/ha) was 0.
